Structures are written as SMILES. Converted amounts (≈) assume the structure as drawn. Counter-ions that a name gives are not always drawn.

The source of these data is patent publication US6984632B1, “Complexes of paroxetine, with cyclodextrins or cyclodextrin derivatives” (Italfarmaco S.p.A., priority 1999, dated 2006).

What all share (assay type): physicochemical
Data set [1] in a line: Solubility in water of complex of Example 9 vs non-complexed paroxetine base. Particulars: thermodynamic from solid; deionised water, room temperature, 4 hours stirring, spectrophotometry at 293 nm; read-out: solubility (content of paroxetine base in the solution). Here is the method:
5 g of the product of Example 9 were added to 10 ml of deionised water and kept under stirring for 4 hours at room temperature.
The suspension was then filtered through a cellulose acetate filter in order to remove the undissolved product.
The solution was analysed by 293 nm spectrophotometry against a standard solution of paroxetine base.

Data set [2] is described as follows: Stability at 60° C., visual examination. As to the method:
About 200 mg of paroxetine base and 1 g of the complex of Example 9 (corresponding to about 180 mg of paroxetine base) have each been introduced in a neutral white glass containers and stored, opened, in an oven at 60° C.
The product in the two containers has been visually examined after 48 hours of storage.

Data set [3] can be described thus: Solubility in water of complexes of Examples 1-5 vs non-complexed paroxetine HCl. Conditions: thermodynamic from solid; deionized water, 25° C., 24 hours stirring, spectrophotometry at 295 nm. As to the method: A solubility test was carried out on an amount of the complexes of Examples 1 to 5 corresponding 500 mg of paroxetine HCl and, as a comparison, on 500 mg of non-complexed paroxetine HCl.
Each sample was introduced into a container containing 5 ml of deionized water. The containers, closed with a plug were then set under stirring in a thermostatic bath at 25° C. for 24 hours.
The obtained suspensions were then filtered through a cellulose acetate filter and analysed by spectrophotometry at 295 nm, in comparison with a standard solution of paroxetine.
The results obtained are reported in FIG. 1 wherein the solubility of paroxetine HCl (in mg/ml) is represented as a function of the molar ratio between β-cyclodextrin and paroxetine HCl.

With `Fc1ccc([C@@H]2CCNC[C@H]2COc2ccc3c(c2)OCO3)cc1` [Paroxetine base, Paroxetine], in data set [1], the solubility at 4 h worked out at 300 µg/mL (≈ 911 µM). The visual appearance result is recorded as “Brown liquid” in data set [2] (48 h 60° C., open glass container) and “Straw-Yellow liquid” in data set [2] (Initial).

With `Fc1ccc([C@@H]2CCNC[C@H]2COc2ccc3c(c2)OCO3)cc1` [non-complexed paroxetine HCl, paroxetine HCl], the solubility at 24 h in data set [3] was determined as 5000 µg/mL.

In general, solubility refers to how much of the substance goes into solution per volume.
